Assay results from PMC9488892 (Medicinal Chemistry Research, 2022).

What was measured:
[1] = target: melatonin type I (MT1) receptor (Homo sapiens, UniProt P48039); format: cell-based
[2] = target: T1, melatonin type II (MT2) receptor (Homo sapiens, UniProt P49286); format: cell-based
T1 sequence (P49286 1-362): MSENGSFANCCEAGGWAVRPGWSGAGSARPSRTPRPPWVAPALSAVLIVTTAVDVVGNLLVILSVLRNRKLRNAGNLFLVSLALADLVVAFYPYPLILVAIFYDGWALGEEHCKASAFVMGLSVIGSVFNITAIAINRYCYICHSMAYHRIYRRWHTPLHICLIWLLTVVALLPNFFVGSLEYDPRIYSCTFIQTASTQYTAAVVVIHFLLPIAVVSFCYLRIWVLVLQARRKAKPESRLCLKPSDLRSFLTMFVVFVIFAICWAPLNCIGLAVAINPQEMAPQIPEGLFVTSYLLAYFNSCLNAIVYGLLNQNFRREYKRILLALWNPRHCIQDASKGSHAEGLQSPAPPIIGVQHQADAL

Sequence of melatonin type I (MT1) receptor (P48039 whole entry): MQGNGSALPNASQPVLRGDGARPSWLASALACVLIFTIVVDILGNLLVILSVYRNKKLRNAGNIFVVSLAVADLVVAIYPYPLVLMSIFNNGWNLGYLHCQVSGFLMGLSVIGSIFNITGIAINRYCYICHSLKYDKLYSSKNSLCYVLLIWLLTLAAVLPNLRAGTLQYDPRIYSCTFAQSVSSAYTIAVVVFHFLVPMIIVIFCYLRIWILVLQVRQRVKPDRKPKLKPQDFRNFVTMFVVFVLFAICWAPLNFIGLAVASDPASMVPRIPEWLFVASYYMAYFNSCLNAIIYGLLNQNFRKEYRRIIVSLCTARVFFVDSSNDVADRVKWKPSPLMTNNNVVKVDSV

**Q.** Which EC50 [1] does the source give for `Cc1cc2c(cc1O)[C@@H](C)[C@H]1Oc3cc(C)c(O)cc3[C@@]1(CN1CCN(C)CC1)O2` [compound 13, (5aS,10aR,11R)-3,8,11-trimethyl-5a-((4-methylpiperazin-1-yl)methyl)-5a,10a-dihydro-11H-benzofuro[3,2-b]chromene-2,7-diol] here?
**A.** 200 µM

**Q.** What about the EC50 [2] of the same compound?
**A.** 240 µM
